Here are results for two compounds from patent US4115587A, “Fatty acid amides of norfenfluramine and compositions and methods thereof” (A. H. Robins Company, Inc., priority 1976, dated 1978).

Each structure is given as a SMILES string. Where two headings read alike, the source gives them in different places.

Series [1] concerns Serum and Liver Lipids. The series can be described thus: Dietary-induced hyperlipemia test, basal diet with cholesterol: serum and liver lipids (Table 5). It is filed as in vivo, male Sprague-Dawley rats. Particulars: .2% in food, ± S.D. The method, then: (§1) General feeding experiments were conducted on rats to determine the effect of the amides of this invention on serum and liver lipids of animals fed a basal diet and a basal diet supplemented with cholesterol. In addition, the effect of these drugs on serum lipoproteins was studied as well as their effect on body weight, gross feed efficiency, liver weight, appetite and energy utilization with respect to their metabolic size. Male, Sprague-Dawley rats weighing 150-175 g. were housed in cages with raised wire floors in a room kept at a temperature of 24°-26° C. with a 12-hour day and 12-hour night cycle, fed ad libitum a semipurified diet consisting by weight % composition: vitamin-free casein, 20; glucose, 63; hydrogenated coconut oil, 10; GBI Vitamin Fortification Mixture, Cat. #40060 obtained from General Biochemical Company of Chargrin Falls, Ohio, 1; modified salt mix of Williams and Briggs, Cat. #170911 obtained from General Biochemical Company, 4; and cellulose, 2; and watered. The modified salt mix provided the following amounts in grams of elements per Kg. of diet:
(§2) Diets were supplemented with 0.5% cholic acid, 1% cholesterol, and drug at the expense of glucose. The experimental period was 18-21 days with body weight and food measured at specified intervals. Animals were fasted overnight and terminally bled by cardiac puncture. Blood was anti-coagulated with ethylenediamine tetracetic acid and plasma was separated by centrifugation, and stored at -20° C. Livers were excised, weighed, and stored at -20° C. All samples remained at this temperature until they were analyzed for total lipids, total cholesterol, triglycerides and phospholipids. Gross feed efficiency together with the effect of metabolic size on food intake and the effect of drug on energy utilization were determined.
(§3) Results of testing the mixed amides of Example 5 an reference compounds in rats on a basal diet with added cholesterol according to the foregoing procedure for dietary induced hyperlipemia are in Tables 4 and 5.

Series [2] relates to Serum and Liver Lipids. The series can be described thus: Dietary-induced hyperlipemia test, basal semi-purified diet: serum and liver lipids (Table 3). It is filed as in vivo, male Sprague-Dawley rats. Particulars: .2% in food, ± S.D. As to the method:
as §1, §2
(§4) Results of testing the mixed amides of Example 5 and reference compounds in rats on a basal diet according to the foregoing procedure for dietary induced hyperlipemia are in Tables 2 and 3.

The test system of series [3] is β-Sterol Synthesis, Liver. The series can be described thus: β-Sterol synthesis, acetate-1-14C incorporation, liver (Table 8). It is filed as in vivo, male Sprague-Dawley rats. The method, then: (§5) The effect of the mixed amides of Example 5 and reference compounds on β Sterol synthesis was determined by a modified procedure of Hill and Dvornik Arch. Biochem. Biophys. 114 (1966), 88. Male Sprague-Dawley rates weighing 127-175 g. were freely provided a basal semi-purified diet and water. The rats were housed in cages with raised wire floors in a room kept at a temperature of 24°-26° C. with a 12-hour day-12-hour night cycle. The cycle was reversed so the night cycle corresponded to the working day to take advantage of the circadian rhythm that favors cholesterol synthesis. The test period was five days and 20 μCi sodium acetate-1-^14 C (Sp. act. 56 mCi/m mole) administered intraperitoneally. Animals were sacrificed under carbon dioxide and the distal 10 cm of the ileum as well as the median and left liver lobes excised and homogenized. Subsequently, the β Sterols were isolated as the digitonide and the radioactivity determined in a Packard Tricarb Liquid Scintillation Spectrometer Model 3385 using 0.5% 2,5 diphenyloxazole and 8% naphthalene in a solvent mixture of 40% toluene, 40% dioxane and 20% absolute ethanol. Data for the effect of the mixed amides of Example 5 on the synthesis of nonsaponifiable substances and β Sterols as determined by the Digitonide method are shown in Table 8. […] A prior art compound, α-methylbenzyllinoleamide at 140 mg/kg, p.o. had no effect on cholesterol synthesis in either tissue.

In a further series the test system is Serum Lipoproteins. The series can be described thus: Serum lipoproteins of rats fed semi-purified diet supplemented with cholesterol (Table 7). Particulars: .2% in food. The format is in vivo. The method, then:
as §1, §2
^a VLDL, very low density lipoproteins; LDL, low density lipoproteins
and HDL, high density lipoproteins as determined on a Beckman-Gilford

For series [4] the following is noted: rats; seemed to be caused by reduced feed intake; cited from earlier work.
Series [5] is classed as in vivo, male Sprague-Dawley rats. Particulars: cholesterol diet, .2% in food. As to the method: as §1, §2, §3
The subject of series [6] is β-Sterol Synthesis, Ileum. The series can be described thus: β-Sterol synthesis, acetate-1-14C incorporation, ileum (Table 8). The format is in vivo, male Sprague-Dawley rats. As to the method: as §5
Series [7] is described as follows: Dietary-induced hyperlipemia test, basal semi-purified diet: liver weight, body weight, food consumption (Table 2). The format is in vivo, male Sprague-Dawley rats. Particulars: .2% in food. As to the method: as §1, §2, §4
Series [8] in a line: Motor activity, modification of the method of Cook et al. It is filed as in vivo, female albino mice, ICR strain. Particulars: 6.5 mg/kg, i.p. An excerpt:
Motor activity of norfenfluramine and the amides of norfenfluramine of this invention were compared by determination of the activity in female, albino mice of the ICR strain by a modification of the method of Cook et al. in J. Pharmac. Exp. Ther. 113:11a (1955).

A short description of series [9]: Neurotoxicity, tremors and lethality. The format is in vivo, mice. Particulars: i.p.

As for `CCCCC/C=C\C/C=C\CCCCCCCC(=O)NC(C)c1ccccc1` (stereo not drawn) [α-methylbenzyl linoleamide], in the series with Serum and Liver Lipids [1], the “Liver Triglycerides” value was found to be 4.35 ± 2.88 mg/g. Besides, in the series on Serum and Liver Lipids [1] (p<.05 for Ex. 5), the “Serum Cholesterol” value is reported as 197.75 ± 23.24 mg/100 ml. In addition, in the series with Serum and Liver Lipids [1] (p<.05 for all), the “Liver Cholesterol” value worked out at 8.33 ± 1.37 mg/g; the “Liver Lipids, Total” value is listed as 84.00 ± 14.26 mg/g; the “Serum Lipids, Total” value is on record as 453.25 ± 90.58 mg/100 ml. Moreover, the “Serum Triglycerides” value in the series with Serum and Liver Lipids [1] (p<.05 for clofibrate) is 262.50 ± 51.88 mg/100 ml. Besides, in the series with Serum and Liver Lipids [2], the “Liver Cholesterol” value is given as 3.34 ± .24 mg/g; the “Liver Lipids, Total” value is listed as 40.05 ± 11.37 mg/g; the “Liver Triglycerides” value is 4.85 ± 2.71 mg/g; the “Serum Cholesterol” value is on record as 77.50 ± 3.91 mg/100 ml. Moreover, in the series on Serum and Liver Lipids [2], the “Serum Lipids, Total” value is listed as 199.80 ± 60.9 mg/100 ml and the “Serum Triglycerides” value was 72.33 ± 29.92 mg/100 ml. For the same compound, in [3] (Liver, 140 mg/kg p.o., ± S.D.), the “Acetate-1-14C incorporated, Digitonide” value is given as 3.882 ± 2.887 n moles/g tissue and the “Acetate-1-14C incorporated, Non-saponifiable” value was determined as 4.533 ± 3.131 n moles/g tissue. The “effect on cholesterol synthesis” value in series [3] (liver, 140 mg/kg, p.o.) is reported as “no effect”. Further, in the series on Serum Lipoproteins, the “Albumin, Percentage Composition” value was 15.65%; the “HDL, Percentage Composition” value stood at 29.62%; the “LDL, Percentage Composition” value worked out at 18.51%; the “VLDL, Percentage Composition” value came out at 36.19%. The “gain in body weight” value in series [4] is “did suppress gain in body weight”. In addition, the “Food Consumed” value in series [5] came out at 311 g. For the same compound, in series [5] (gross weight gain/total food consumed in grams), the “Gross Feed Efficiency” value is “.177”. Also, in [5] (± S.D.), the “Body wt, Final” value turned out to be 192 ± 25 g; the “Liver wt per 100 g body wt.” value is 3.7 ± .2 g; the “Liver wt, Total” value was 7.1 ± 1.3 g. Moreover, in [6] (Ileum, 140 mg/kg p.o., ± S.D.), the “Acetate-1-14C incorporated, Digitonide” value is 5.947 ± .654 n moles/g tissue and the “Acetate-1-14C incorporated, Non-saponifiable” value was determined as 7.648 ± 1.664 n moles/g tissue. The “effect on cholesterol synthesis” value in series [6] (ileum, 140 mg/kg, p.o.) was “no effect”. Besides, the “Food Consumed” value in [7] was 331 g. Further, the “Gross Feed Efficiency” value in series [7] (gross weight gain in grams/total food consumed in grams) is “.210”. Moreover, in [7] (± S.D.), the “Body wt, Final” value is recorded as 226 ± 30 g; the “Liver wt per 100 g body wt.” value is on record as 2.9 ± .3 g; the “Liver wt, Total” value is 6.7 ± .8 g.
Turning to `CC(N)Cc1cccc(C(F)(F)F)c1` (stereo not drawn) [norfenfluramine], the “effect on motor activity” value in [8] is given as “strong effect”. Further, the tremors entry in series [9] (40 mg/kg) was “tremors were observed”. For the same compound, in [9] (100 mg/kg), the lethality entry was “lethality”.
